# Tests used:
# Assay in all cases: in-line probing
# [1] = tested on: 92 allB (RNA, riboswitch) GGCAGAAUAAGCUCUUGUAUAAGCUCAUUAAUCCGGUUUGAGCGUUUCGACCAGGCGACCGUAAAUUGCCCCAGGCUACAAGAGGUGCAGGAAA; settings: 100 mM K+, 20 mM Mg2+, 100 mM Tris-HCl pH 8.3, room temperature, ~40 h
# [2] = tested on: 92 PRT (RNA, riboswitch) GGAAUCAAACAUCUCUUGUAUAAGCUCGUUAAUUUGGAAUGAGCGUAUCUACAGGCAACCGUAAAUUGCCCCAGGCUACAAGAGGCCAGACAAG; settings: 100 mM K+, 20 mM Mg2+
# [3] = tested on: 94 nuc (RNA, riboswitch) GGAAAAAAAAUUAUUUUUCGUAUAUCCUUAAUGAUAUGGUUUAAGGGCAAUACAUAGAAACCACAAAUUUCUUACUGCGAAAAAUAUGCUUCUUUA; settings: 100 mM K+, 20 mM Mg2+; 100 mM Tris-HCl pH 8.3, room temperature, ~40 h
compound,measurement,setting,value
Nc1nc2[nH]cnc2c(=O)[nH]1,binding,[1]; 100 µM compound,no
same,KD,[2],< 8.3 nM
Nc1nc2c(ncn2[C@H]2C[C@H](O)[C@@H](CO)O2)c(=O)[nH]1,KD,[3],~ 1.5 μM
O=c1[nH]c(=O)c2[nH]cnc2[nH]1,KD,[1],~ 36.5 µM
same,binding,"[2]; 100 mM Tris-HCl pH 8.3, room temperature, ~40 h, 100 µM compound",no
